Data: patent US11123337B2, “4-methylsulfonyl-substituted piperidine urea compounds” (MYOKARDIA, INC., priority 2015, dated 2021)

Biological target: bovine cardiac myosin (Bos taurus, UniProt Q9BE39)
Test: Myosin activation assay (PK/LDH-coupled ATPase, bovine cardiac myofibrils)
Type: biochemical
Settings: AC20 = concentration at which total response is increased by twenty percent
Outline: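 Skinned bovine cardiac myofibrils (1 mg/mL) in PIPES/MgCl2 buffer pH 6.8 at free Ca2+ giving ~50% (pCa ~6) or <5% (pCa 10) activation, with 50 μM ATP and 3.3% DMSO. ATPase rate from NADH absorbance at 340 nm (PK/LDH coupling) over 15 min at ambient temperature. AC20/AC50 from a four-parameter fit of DMSO-normalised rates.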

Chain of bovine cardiac myosin (Q9BE39 whole entry): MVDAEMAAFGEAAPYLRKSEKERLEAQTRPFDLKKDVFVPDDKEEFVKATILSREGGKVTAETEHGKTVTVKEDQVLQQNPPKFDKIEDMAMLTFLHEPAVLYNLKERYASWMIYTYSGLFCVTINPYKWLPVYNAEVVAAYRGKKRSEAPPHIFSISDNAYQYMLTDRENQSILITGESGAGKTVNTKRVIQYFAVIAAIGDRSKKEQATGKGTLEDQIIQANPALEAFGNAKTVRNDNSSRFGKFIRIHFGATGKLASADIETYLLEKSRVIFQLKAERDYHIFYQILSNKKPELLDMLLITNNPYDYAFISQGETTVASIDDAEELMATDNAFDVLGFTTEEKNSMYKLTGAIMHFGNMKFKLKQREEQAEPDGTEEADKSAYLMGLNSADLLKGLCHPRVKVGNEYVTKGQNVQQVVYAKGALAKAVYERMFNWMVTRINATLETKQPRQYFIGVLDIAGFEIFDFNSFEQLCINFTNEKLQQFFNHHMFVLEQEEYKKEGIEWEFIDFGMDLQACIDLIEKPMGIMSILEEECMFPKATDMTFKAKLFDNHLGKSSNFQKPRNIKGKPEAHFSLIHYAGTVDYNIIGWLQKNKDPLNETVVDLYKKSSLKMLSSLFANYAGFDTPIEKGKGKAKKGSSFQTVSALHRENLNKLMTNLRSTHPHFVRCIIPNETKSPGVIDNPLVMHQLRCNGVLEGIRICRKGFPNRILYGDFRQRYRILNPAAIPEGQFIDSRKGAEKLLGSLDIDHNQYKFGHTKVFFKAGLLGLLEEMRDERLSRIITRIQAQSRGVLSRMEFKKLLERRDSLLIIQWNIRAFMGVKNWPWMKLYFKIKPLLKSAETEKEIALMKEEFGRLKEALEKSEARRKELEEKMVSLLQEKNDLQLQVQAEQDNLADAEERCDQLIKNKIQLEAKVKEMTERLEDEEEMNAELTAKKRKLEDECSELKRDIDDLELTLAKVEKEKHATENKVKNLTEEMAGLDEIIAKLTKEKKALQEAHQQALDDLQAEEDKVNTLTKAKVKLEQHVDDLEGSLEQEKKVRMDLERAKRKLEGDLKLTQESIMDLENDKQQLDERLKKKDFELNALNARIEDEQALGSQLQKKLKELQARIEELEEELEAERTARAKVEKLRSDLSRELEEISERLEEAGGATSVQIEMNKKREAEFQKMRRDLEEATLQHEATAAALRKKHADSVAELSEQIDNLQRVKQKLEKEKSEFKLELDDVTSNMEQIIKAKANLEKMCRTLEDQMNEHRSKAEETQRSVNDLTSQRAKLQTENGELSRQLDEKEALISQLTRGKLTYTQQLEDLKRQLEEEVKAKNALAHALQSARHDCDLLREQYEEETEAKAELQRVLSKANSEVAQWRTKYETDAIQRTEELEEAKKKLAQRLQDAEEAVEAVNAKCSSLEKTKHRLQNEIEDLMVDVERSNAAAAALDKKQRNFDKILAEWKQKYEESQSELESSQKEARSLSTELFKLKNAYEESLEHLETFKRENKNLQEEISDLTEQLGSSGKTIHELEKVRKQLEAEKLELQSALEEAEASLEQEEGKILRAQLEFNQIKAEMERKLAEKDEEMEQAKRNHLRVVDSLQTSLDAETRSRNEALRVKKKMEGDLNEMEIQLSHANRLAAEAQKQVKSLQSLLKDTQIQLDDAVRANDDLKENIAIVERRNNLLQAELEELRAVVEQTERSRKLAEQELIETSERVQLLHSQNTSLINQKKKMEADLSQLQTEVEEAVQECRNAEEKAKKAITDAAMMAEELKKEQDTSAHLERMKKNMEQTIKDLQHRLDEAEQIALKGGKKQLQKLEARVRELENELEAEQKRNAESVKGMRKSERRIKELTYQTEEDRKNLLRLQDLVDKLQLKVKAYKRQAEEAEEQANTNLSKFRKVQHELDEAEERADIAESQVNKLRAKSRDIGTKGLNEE
Chain of bovine cardiac myosin (P85100 whole entry partner): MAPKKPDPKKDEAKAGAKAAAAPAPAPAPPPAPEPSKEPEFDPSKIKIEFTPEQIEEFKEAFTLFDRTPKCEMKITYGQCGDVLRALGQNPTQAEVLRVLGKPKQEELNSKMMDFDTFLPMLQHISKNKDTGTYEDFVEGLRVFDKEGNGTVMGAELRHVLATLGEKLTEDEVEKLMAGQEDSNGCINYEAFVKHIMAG
Chain of bovine cardiac myosin (Q3SZE5 whole entry partner): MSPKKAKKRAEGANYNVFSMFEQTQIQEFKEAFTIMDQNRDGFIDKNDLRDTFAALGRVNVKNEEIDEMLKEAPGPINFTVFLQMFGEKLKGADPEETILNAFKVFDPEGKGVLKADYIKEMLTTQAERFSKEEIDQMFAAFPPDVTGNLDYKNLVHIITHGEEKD

SMILES | Myosin Activation (AC20)
CC(C)(C1CCN(C(=O)Nc2ccnnc2)CC1)S(=O)(=O)c1ccc2ccnn2c1 [Compound 189, 4-(2-(pyrazolo[1,5-a]pyridin-6-ylsulfonyl)propan-2-yl)-N-(pyridazin-4-yl)piperidine-1-carboxamide] | +++ (+++ represents myosin activation value AC20 < 2 μM)
COc1ncccc1S(=O)(=O)C(C)(C)C1CCN(C(=O)Nc2ccnnc2)CC1 [Compound 190, 4-(2-((2-methoxypyridin-3-yl)sulfonyl)propan-2-yl)-N-(pyridazin-4-yl)piperidine-1-carboxamide] | ++ (++ represents myosin activation value AC20 from 2 μM-5 μM)
CC(C)(C1CCN(C(=O)Nc2ccnnc2)CC1)S(=O)(=O)c1ccn2nccc2c1 [Compound 191, 4-(2-(pyrazolo[1,5-a]pyridin-5-ylsulfonyl)propan-2-yl)-N-(pyridazin-4-yl)piperidine-1-carboxamide] | +++ (+++ represents myosin activation value AC20 < 2 μM)
Cn1nccc1S(=O)(=O)C(C)(C)C1CCN(C(=O)Nc2ccnnc2)CC1 [Compound 192, 4-(2-((1-methyl-1H-pyrazol-5-yl)sulfonyl)propan-2-yl)-N-(pyridazin-4-yl)piperidine-1-carboxamide] | +++ (+++ represents myosin activation value AC20 < 2 μM)
Cn1nccc1S(=O)(=O)C(C)(C)C1CCN(C(=O)Nc2cnns2)CC1 [Compound 193, 4-(2-((1-methyl-1H-pyrazol-5-yl)sulfonyl)propan-2-yl)-N-(1,2,3-thiadiazol-5-yl)piperidine-1-carboxamide] | +++ (+++ represents myosin activation value AC20 < 2 μM)
Cn1nccc1S(=O)(=O)C(C)(C)C1CCN(C(=O)Nc2ccncc2)CC1 [Compound 194, 4-(2-((1-methyl-1H-pyrazol-5-yl)sulfonyl)propan-2-yl)-N-(pyridin-4-yl)piperidine-1-carboxamide] | ++ (++ represents myosin activation value AC20 from 2 μM-5 μM)
CC(C)(C1CCN(C(=O)Nc2ccnnc2)CC1)S(=O)(=O)c1ccccc1C(F)(F)F [Compound 195, N-(pyridazin-4-yl)-4-(2-((2-(trifluoromethyl)phenyl)sulfonyl)propan-2-yl)piperidine-1-carboxamide] | ++ (++ represents myosin activation value AC20 from 2 μM-5 μM)
Cc1cc(C#N)ccc1S(=O)(=O)C(C)(C)C1CCN(C(=O)Nc2ccnnc2)CC1 [Compound 196, 4-(2-((4-cyano-2-methylphenyl)sulfonyl)propan-2-yl)-N-(pyridazin-4-yl)piperidine-1-carboxamide] | ++ (++ represents myosin activation value AC20 from 2 μM-5 μM)
CC(C)(C1CCN(C(=O)Nc2ccnnc2)CC1)S(=O)(=O)c1ccccc1Cl [Compound 197, 4-(2-((2-chlorophenyl)sulfonyl)propan-2-yl)-N-(pyridazin-4-yl)piperidine-1-carboxamide] | +++ (+++ represents myosin activation value AC20 < 2 μM)
Cn1cc(S(=O)(=O)C(C)(C)C2CCN(C(=O)Nc3ccncc3)CC2)cn1 [Compound 198, 4-(2-((1-methyl-1H-pyrazol-4-yl)sulfonyl)propan-2-yl)-N-(pyridin-4-yl)piperidine-1-carboxamide] | + (+ represents myosin activation value AC20 > 5 μM)
Cn1cc(S(=O)(=O)C(C)(C)C2CCN(C(=O)Nc3ccnnc3)CC2)cn1 [Compound 199, 4-(2-((1-methyl-1H-pyrazol-4-yl)sulfonyl)propan-2-yl)-N-(pyridazin-4-yl)piperidine-1-carboxamide] | + (+ represents myosin activation value AC20 > 5 μM)
N#Cc1ccccc1S(=O)(=O)C1(C2CCN(C(=O)Nc3ccnnc3)CC2)CC1 [Compound 200, 4-(1-((2-cyanophenyl)sulfonyl)cyclopropyl)-N-(pyridazin-4-yl)piperidine-1-carboxamide] | ++ (++ represents myosin activation value AC20 from 2 μM-5 μM)
CC(C)(C1CCN(C(=O)Nc2ccns2)CC1)S(=O)(=O)c1ccccc1C#N [Compound 201, 4-(2-((2-cyanophenyl)sulfonyl)propan-2-yl)-N-(isothiazol-5-yl)piperidine-1-carboxamide] | + (+ represents myosin activation value AC20 > 5 μM)
Cc1ccccc1S(=O)(=O)C1(C2CCN(C(=O)Nc3ccncc3)CC2)CC1 [Compound 202, N-(pyridin-4-yl)-4-(1-(o-tolylsulfonyl)cyclopropyl)piperidine-1-carboxamide] | +++ (+++ represents myosin activation value AC20 < 2 μM)
O=C(Nc1ccns1)N1CCC(C2(S(=O)(=O)c3cc(F)cc(F)c3)CC2)CC1 [Compound 203, 4-(1-((3,5-difluorophenyl)sulfonyl)cyclopropyl)-N-(isothiazol-5-yl)piperidine-1-carboxamide] | +++ (+++ represents myosin activation value AC20 < 2 μM)
CC(C)(C1CCN(C(=O)Nc2ccnnc2)CC1)S(=O)(=O)c1ccccc1C#N [Compound 204, 4-(2-((2-cyanophenyl)sulfonyl)propan-2-yl)-N-(pyridazin-4-yl)piperidine-1-carboxamide] | + (+ represents myosin activation value AC20 > 5 μM)

SMILES | Myosin Activation (AC20)
O=C(Nc1ccnnc1)N1CCC(C2(S(=O)(=O)c3ccc(OC(F)(F)F)cc3)CC2)CC1 [Compound 205, N-(pyridazin-4-yl)-4-(1-((4-(trifluoromethoxy)phenyl)sulfonyl)cyclopropyl)piperidine-1-carboxamide] | +++ (+++ represents myosin activation value AC20 < 2 μM)
O=C(Nc1ccncc1)N1CCC(C2(S(=O)(=O)c3ccc(OC(F)(F)F)cc3)CC2)CC1 [Compound 206, N-(pyridin-4-yl)-4-(1-((4-(trifluoromethoxy)phenyl)sulfonyl)cyclopropyl)piperidine-1-carboxamide] | +++ (+++ represents myosin activation value AC20 < 2 μM)
O=C(Nc1ccns1)N1CCC(C2(S(=O)(=O)c3ccc(OC(F)(F)F)cc3)CC2)CC1 [Compound 207, N-(isothiazol-5-yl)-4-(1-((4-(trifluoromethoxy)phenyl)sulfonyl)cyclopropyl)piperidine-1-carboxamide] | +++ (+++ represents myosin activation value AC20 < 2 μM)
CC(C)(C1CCN(C(=O)Nc2ccns2)CC1)S(=O)(=O)c1ccccc1Cl [Compound 208, 4-(2-((2-chlorophenyl)sulfonyl)propan-2-yl)-N-(isothiazol-5-yl)piperidine-1-carboxamide] | ++ (++ represents myosin activation value AC20 from 2 μM-5 μM)
CC(C)(C1CCN(C(=O)Nc2ccncc2)CC1)S(=O)(=O)c1ccccc1C#N [Compound 209, 4-(2-((2-cyanophenyl)sulfonyl)propan-2-yl)-N-(pyridin-4-yl)piperidine-1-carboxamide] | ++ (++ represents myosin activation value AC20 from 2 μM-5 μM)
CC(C)(C1CCN(C(=O)Nc2ccns2)CC1)S(=O)(=O)c1cc(F)cc(F)c1 [Compound 210, 4-(2-((3,5-difluorophenyl)sulfonyl)propan-2-yl)-N-(isothiazol-5-yl)piperidine-1-carboxamide] | +++ (+++ represents myosin activation value AC20 < 2 μM)
CC(C)(C1CCN(C(=O)Nc2cnns2)CC1)S(=O)(=O)c1cccc(F)c1 [Compound 211, 4-(2-((3-fluorophenyl)sulfonyl)propan-2-yl)-N-(1,2,3-thiadiazol-5-yl)piperidine-1-carboxamide] | +++ (+++ represents myosin activation value AC20 < 2 μM)
Cc1ccccc1S(=O)(=O)C(C)(C)C1CCN(C(=O)Nc2ccncc2)CC1 [Compound 212, N-(pyridin-4-yl)-4-(2-(o-tolylsulfonyl)propan-2-yl)piperidine-1-carboxamide] | +++ (+++ represents myosin activation value AC20 < 2 μM)
Cc1ccccc1S(=O)(=O)C(C)(C)C1CCN(C(=O)Nc2ccns2)CC1 [Compound 213, N-(isothiazol-5-yl)-4-(2-(o-tolylsulfonyl)propan-2-yl)piperidine-1-carboxamide] | +++ (+++ represents myosin activation value AC20 < 2 μM)
Cc1cnccc1NC(=O)N1CCC(C(C)(C)S(=O)(=O)c2cccc(F)c2)CC1 [Compound 214, 4-(2-((3-fluorophenyl)sulfonyl)propan-2-yl)-N-(3-methylpyridin-4-yl)piperidine-1-carboxamide] | + (+ represents myosin activation value AC20 > 5 μM)
COc1ccccc1S(=O)(=O)C(C)(C)C1CCN(C(=O)Nc2ccns2)CC1 [Compound 215, N-(isothiazol-5-yl)-4-(2-((2-methoxyphenyl)sulfonyl)propan-2-yl)piperidine-1-carboxamide] | ++ (++ represents myosin activation value AC20 from 2 μM-5 μM)
COc1ccccc1S(=O)(=O)C(C)(C)C1CCN(C(=O)Nc2ccncc2)CC1 [Compound 216, 4-(2-((2-methoxyphenyl)sulfonyl)propan-2-yl)-N-(pyridin-4-yl)piperidine-1-carboxamide] | +++ (+++ represents myosin activation value AC20 < 2 μM)
O=C(Nc1ccns1)N1CCC(C2(S(=O)(=O)c3cccc(F)c3)CC2)CC1 [Compound 217, 4-(1-((3-fluorophenyl)sulfonyl)cyclopropyl)-N-(isothiazol-5-yl)piperidine-1-carboxamide] | +++ (+++ represents myosin activation value AC20 < 2 μM)
CC(C)(C1CCN(C(=O)Nc2ccns2)CC1)S(=O)(=O)c1cccc(F)c1 [Compound 218, 4-(2-((3-fluorophenyl)sulfonyl)propan-2-yl)-N-(isothiazol-5-yl)piperidine-1-carboxamide] | ++ (++ represents myosin activation value AC20 from 2 μM-5 μM)
CN(C(=O)N1CCC(C(C)(C)S(=O)(=O)c2cccc(F)c2)CC1)c1ccncc1 [Compound 219, 4-(2-((3-fluorophenyl)sulfonyl)propan-2-yl)-N-methyl-N-(pyridin-4-yl)piperidine-1-carboxamide] | + (+ represents myosin activation value AC20 > 5 μM)
